The results in this text go back to paper PMC2443152, “Molecular evolution of B6 enzymes: Binding of pyridoxal-5'-phosphate and Lys41Arg substitution turn ribonuclease A into a model B6 protoenzyme” (BMC Biochemistry, 2008).

The target of test [1] is T1, bovine pancreatic ribonuclease A (RNase) (Bos taurus, UniProt P61823, K67R).
T1 construct: gene RNASE1; mature RNase A; recombinant from pET22b(+) NdeI/HindIII in E. coli BL21 (wild type also from bovine pancreas, Sigma type II); no tag mentioned
T1 sequence (P61823 27-150 K67R): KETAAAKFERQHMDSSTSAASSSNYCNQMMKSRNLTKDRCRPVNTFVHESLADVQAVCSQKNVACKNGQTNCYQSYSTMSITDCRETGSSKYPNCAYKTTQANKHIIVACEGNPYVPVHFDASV
Description: intrinsic (tyrosine) fluorescence quenching titration, nonlinear regression. The format is binding. From the text: (§1) intrinsic (tyrosine) fluorescence quenching titration, nonlinear regression on bovine pancreatic ribonuclease A (RNase)

Test [2] addresses T2, bovine pancreatic ribonuclease A (RNase) (Bos taurus, UniProt P61823).
T2 construct: gene RNASE1; mature RNase A; recombinant from pET22b(+) NdeI/HindIII in E. coli BL21 (wild type also from bovine pancreas, Sigma type II); no tag mentioned
T2 sequence (P61823 27-150): T1 sequence (P61823 27-150 K67R) with R41K
The description is as above. The format is binding. Particulars: read-out: Wild-type.
Source text: as §1

Where a chain is given by its changes, count along the chain named. Read-outs that look alike come from different tables or passages of the source.

As to `Cc1ncc(COP(=O)(O)O)c(C=O)c1O` [PLP], the Kd in test [1] (read-out: K41R) amounted to 140 ± 10 µM; in test [2] it was 120 ± 5 µM.
For `Cc1ncc(COP(=O)(O)O)c(CN)c1O` [PMP], the results for the Kd in test [1] (read-out: K41R) and in test [2] were 107 ± 3 µM and 106 ± 5 µM, respectively.
The corresponding values for `Cc1ncc(COP(=O)(O)O)c(CN[C@H](C)C(=O)O)c1O` [PPL-D-alanine] are 40 ± 3 µM and 45 ± 1 µM.
Turning to `Cc1ncc(COP(=O)(O)O)c(CN[C@@H](C)C(=O)O)c1O` [PPL-L-alanine], the Kd in test [1] (read-out: Wild-type) and in test [2] was 23 ± 1 µM in each case.
